Experimental data from patent publication US10239843B2 (CANCER RESEARCH TECHNOLOGY LIMITED, priority 2014, dated 2019).
Where two headings read alike, the source gives them in different places.

Target: Human Full Length PARG (Homo sapiens (Human), UniProt Q86W56)
Test: PARG enzyme assay (TR-FRET)
Format: biochemical
[1] = read-out: PARG Biochem IC50 Geomean

Chain of Human Full Length PARG (Q86W56 whole entry): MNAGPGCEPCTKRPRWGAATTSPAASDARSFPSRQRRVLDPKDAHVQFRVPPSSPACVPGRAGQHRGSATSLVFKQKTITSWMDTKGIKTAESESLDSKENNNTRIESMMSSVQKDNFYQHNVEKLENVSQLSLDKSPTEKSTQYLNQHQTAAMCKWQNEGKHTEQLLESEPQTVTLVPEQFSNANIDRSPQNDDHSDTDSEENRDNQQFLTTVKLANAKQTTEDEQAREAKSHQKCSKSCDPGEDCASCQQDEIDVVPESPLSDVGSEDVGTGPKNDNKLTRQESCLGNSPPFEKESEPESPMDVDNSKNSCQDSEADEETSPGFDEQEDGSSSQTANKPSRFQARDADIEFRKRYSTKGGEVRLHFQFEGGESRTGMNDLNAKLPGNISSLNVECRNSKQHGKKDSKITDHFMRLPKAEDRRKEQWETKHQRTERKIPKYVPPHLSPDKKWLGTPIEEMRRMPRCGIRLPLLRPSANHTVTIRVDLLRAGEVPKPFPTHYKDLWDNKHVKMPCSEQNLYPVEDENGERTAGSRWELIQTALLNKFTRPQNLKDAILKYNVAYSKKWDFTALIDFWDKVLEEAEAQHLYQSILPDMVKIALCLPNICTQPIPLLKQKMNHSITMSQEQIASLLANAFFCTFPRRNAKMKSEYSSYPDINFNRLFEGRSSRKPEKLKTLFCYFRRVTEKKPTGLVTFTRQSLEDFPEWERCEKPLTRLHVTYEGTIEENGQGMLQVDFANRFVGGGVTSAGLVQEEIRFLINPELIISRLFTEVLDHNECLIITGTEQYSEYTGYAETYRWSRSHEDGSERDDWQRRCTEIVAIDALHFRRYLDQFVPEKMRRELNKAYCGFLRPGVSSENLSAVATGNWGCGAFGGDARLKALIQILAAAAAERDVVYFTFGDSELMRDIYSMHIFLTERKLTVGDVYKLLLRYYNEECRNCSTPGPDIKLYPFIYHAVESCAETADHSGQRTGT

| IC50 [1] | IC50 (read-out: PARG Biochem IC50) | SMILES |
| --- | --- | --- |
| 4410 nM | – | Cn1c(=O)c2cc(S(=O)(=O)NC3(C)CC3)ccc2n(CC#N)c1=O [Example 175] |
| 725 nM | – | Cc1nc(C(F)(F)F)c(Cn2c(=O)c3cc(S(=O)(=O)NC4(C)CC4)ccc3n(C)c2=O)s1 [Example 179] |
| 1230 nM | – | Cc1cc(Cn2cnc3ccc(S(=O)(=O)NC4(C)CC4)cc3c2=O)on1 [Example 210] |
| 1280 nM | – | Cc1cc(Cn2cc(C)c3ccc(S(=O)(=O)NC4(C)CC4)cc3c2=O)on1 [Example 256, 4-Methyl-N-(1-methylcyclopropyl)-2-[(3-methylisoxazol-5-yl)methyl]-1-oxo-isoquinoline-7-sulfonamide] |
| 2680 nM | – | Cc1cc(Cn2cc(Br)c3ccc(S(=O)(=O)NC4(C)CC4)cc3c2=O)on1 [Example 307, 4-Bromo-N-(1-methylcyclopropyl)-2-[(3-methylisoxazol-5-yl)methyl]-1-oxo-isoquinoline-7-sulfonamide] |
| 836 nM | – | COC(=O)c1nn(Cc2cc(C)no2)c(=O)c2cc(S(=O)(=O)NC3(C)CC3)ccc12 [Example 301] |
| 4810 nM | – | Cn1c(=O)c2cc(S(=O)(=O)NC3(C)CC3)ccc2n(CC(=O)c2ccc(N3CCCC3)cc2)c1=O [Example 117] |
| 800 nM | – | CNC(=O)c1nn(Cc2cc(C)no2)c(=O)c2cc(S(=O)(=O)NC3(C)CC3)ccc12 [Example 303] |
| 1270 nM | – | Cc1cc(Cn2ncc3ccc(S(=O)(=O)NC4(C)CC4)cc3c2=O)on1 [Example 299, N-(1-Methylcyclopropyl)-3-[(3-methylisoxazol-5-yl)methyl]-4-oxo-phthalazine-6-sulfonamide] |
| 8940 nM | – | Cn1c(=O)c2cc(S(=O)(=O)NC3(C)CC3)ccc2n(CC(=O)c2ccc(O)cc2)c1=O [Example 107] |
| 2420 nM | – | Cn1c(=O)c2cc(S(=O)(=O)NC3(C)CC3)ccc2n(CC2CCCO2)c1=O (stereo not shown) [Example 49] |
| – | 7070 nM | CC1(NS(=O)(=O)c2ccc3[nH]c(=O)n(CCc4ccccn4)c(=O)c3c2)CC1 [Example 495, N-(1-Methylcyclopropyl)-2,4-dioxo-3-[2-(2-pyridyl)ethyl]-1H-quinazoline-6-sulfonamide] |
| 523 nM | – | Cc1cc(Cn2c(=O)c3cc(S(=O)(=O)NC4(C)CC4)ccc3n(CC(C)O)c2=O)on1 (stereo not shown) [Example 338] |
| 737 nM | – | CCOc1nn(Cc2cc(C)no2)c(=O)c2cc(S(=O)(=O)NC3(C)CC3)ccc12 [Example 316, 1-Ethoxy-N-(1-methylcyclopropyl)-3-[(3-methylisoxazol-5-yl)methyl]-4-oxo-phthalazine-6-sulfonamide] |
| 6960 nM | – | Cc1nc2ccc(S(=O)(=O)NC3(C)CC3)cc2c(=O)[nH]1 [Example 52] |
| 2540 nM | – | Cc1noc(C)c1Cn1c(=O)n(C)c(=O)c2cc(S(=O)(=O)NC3(C)CC3)ccc21 [Example 121] |
| 855 nM | – | Cn1c(=O)c2cc(S(=O)(=O)NC3(C)CC3)ccc2n(Cc2cscn2)c1=O [Example 148] |
| 2520 nM | – | Cc1cc(Cn2nc(C3CCCC3)c3ccc(S(=O)(=O)NC4(C)CC4)cc3c2=O)on1 [Example 309] |
| 1270 nM | – | Cn1c(=O)c2cc(S(=O)(=O)NC3(C)CC3)ccc2n(Cc2ccccc2Cl)c1=O [Example 62] |
| 1370 nM | – | COc1ccc(Cn2cc(Cn3c(=O)c4cc(S(=O)(=O)NC5(C)CC5)ccc4n(C)c3=O)cn2)cc1 [Example 212] |
| 2600 nM | – | Cc1cc(Cn2c(=O)c3cc(S(=O)(=O)NC4(C)CC4)cnc3n(C)c2=O)on1 [Example 205] |

| IC50 [1] | IC50 (read-out: PARG Biochem IC50) | SMILES |
| --- | --- | --- |
| – | 3270 nM | Cn1c(=O)n(CC(=O)c2ccc(C#N)cc2)c(=O)c2cc(S(=O)(=O)NC3(C)CC3)ccc21 [Example 531, 3-[2-(4-Cyanophenyl)-2-oxo-ethyl]-1-methyl-N-(1-methylcyclopropyl)-2,4-dioxo-quinazoline-6-sulfonamide] |
| 1570 nM | – | CCn1c(=O)c2cc(S(=O)(=O)NC3(C)CC3)ccc2n(CCOC)c1=O [Example 17] |
| 1680 nM | – | Cc1cc(C)cc(Cn2c(=O)n(C)c(=O)c3cc(S(=O)(=O)NC4(C)CC4)ccc32)c1 [Example 77] |
| 859 nM | – | Cc1cc(Cn2nc(OC3CCC3)c3ccc(S(=O)(=O)NC4(C)CC4)cc3c2=O)on1 [Example 319] |
| 1110 nM | – | CC#CCn1c(=O)n(C)c(=O)c2cc(S(=O)(=O)NC3(C)CC3)ccc21 [Example 136] |
| – | 2770 nM | Cn1nnnc1Cn1c(=O)c2cc(S(=O)(=O)NC3(C)CC3)ccc2n(C)c1=O [Example 508, 1-Methyl-N-(1-methylcyclopropyl)-3-[(1-methyltetrazol-5-yl)methyl]-2,4-dioxo-quinazoline-6-sulfonamide] |
| 1330 nM | – | Cc1nc(C)c(Cn2c(=O)c3cc(S(=O)(=O)NC4(C)CC4)ccc3n(C)c2=O)o1 [Example 189] |
| 3880 nM | – | Cn1cc(NC(=O)Cn2c(=O)n(C)c(=O)c3cc(S(=O)(=O)NC4(C)CC4)ccc32)cn1 [Example 106] |
| 1180 nM | – | Cc1cc(Cn2nc(C)c3ccc(S(=O)(=O)NC4(C)CC4)cc3c2=O)on1 [Example 284, 1-methyl-N-(1-methylcyclopropyl)-3-[(3-methylisoxazol-5-yl)methyl]-4-oxo-phthalazine-6-sulfonamide] |
| 621 nM | – | COc1cc(Cn2c(=O)n(C)c(=O)c3cc(S(=O)(=O)NC4(C)CC4)ccc32)cc(OC)c1 [Example 78] |
| 4220 nM | – | Cn1cc(Cn2c(=O)c3cc(S(=O)(=O)NC4(C)CC4)ccc3n(CCN3CCCC3=O)c2=O)cn1 [Example 334] |
| 871 nM | – | COc1cccc(Cc2nn(Cc3cc(C)no3)c(=O)c3cc(S(=O)(=O)NC4(C)CC4)ccc23)c1 [Example 315] |
| 512 nM | – | Cc1cc(Cn2nc(C#CCN(C)C)c3ccc(S(=O)(=O)NC4(C)CC4)cc3c2=O)on1 [Example 283, 1-[3-(dimethylamino)prop-1-ynyl]-N-(1-methylcyclopropyl)-3-[(3-methylisoxazol-5-yl)methyl]-4-oxo-phthalazine-6-sulfonamide] |
| 5140 nM | – | Cn1nc(Cl)c2ccc(S(=O)(=O)NC3(C)CC3)cc2c1=O [Example 227, 1-Chloro-3-methyl-N-(1-methylcyclopropyl)-4-oxo-phthalazine-6-sulfonamide] |
| 560 nM | – | C#CCn1cc(Cn2c(=O)c3cc(S(=O)(=O)NC4(C)CC4)ccc3n(C)c2=O)cn1 [Example 216] |
| 1420 nM | – | Cn1c(=O)c2cc(S(=O)(=O)NC3(C)CC3)ccc2n(Cc2noc(C(C)(C)C)n2)c1=O [Example 119] |
| 1470 nM | – | CCn1c(=O)c2cc(S(=O)(=O)NC3(C)CC3)ccc2n(CC)c1=O [Example 4] |
| 2420 nM | – | Cc1cc(Cn2c(=O)c3cc(S(=O)(=O)NC4(C)CC4)ccc3n(C)c2=O)n(C)n1 [Example 123] |
| – | 1740 nM | Cn1c(=O)n(CC(=O)c2ccncc2)c(=O)c2cc(S(=O)(=O)NC3(C)CC3)ccc21 [Example 528, 1-Methyl-N-(1-methylcyclopropyl)-2,4-dioxo-3-[2-oxo-2-(4-pyridyl)ethyl]quinazoline-6-sulfonamide] |
| 1230 nM | – | COc1nn(Cc2cc(C)no2)c(=O)c2cc(S(=O)(=O)NC3(C)CC3)ccc12 [Example 312, 1-Methoxy-N-(1-methylcyclopropyl)-3-[(3-methylisoxazol-5-yl)methyl]-4-oxo-phthalazine-6-sulfonamide] |
| – | 348 nM | Cc1cc(Cn2c(=O)c3cc(S(=O)(=O)NC4(C)CC4)ccc3n(CC(C)(C)F)c2=O)on1 [Example 453, 1-(2-Fluoro-2-methyl-propyl)-N-(1-methylcyclopropyl)-3-[(3-methylisoxazol-5-yl)methyl]-2,4-dioxo-quinazoline-6-sulfonamide] |

| IC50 [1] | IC50 (read-out: PARG Biochem IC50) | SMILES |
| --- | --- | --- |
| 1280 nM | – | Cn1c(=O)c2cc(S(=O)(=O)NC3(C)CC3)ccc2n(Cc2ccc(C#N)c(F)c2)c1=O [Example 100] |
| 1840 nM | – | CC(C)Cc1nc2ccc(S(=O)(=O)NC3(C)CC3)cc2c(=O)n1C [Example 81] |
| 2480 nM | – | CN(C)CCn1cc(Cn2c(=O)c3cc(S(=O)(=O)NC4(C)CC4)ccc3n(C)c2=O)cn1 [Example 219] |
| 638 nM | – | Cc1cc(Cn2nc(N(C)C)c3ccc(S(=O)(=O)NC4(C)CC4)cc3c2=O)on1 [Example 282] |
| 907 nM | – | Cc1nc(C)c(Cn2c(=O)c3cc(S(=O)(=O)NC4(C)CC4)ccc3n(C)c2=O)s1 [Example 142] |
| 4410 nM | – | Cn1c(=O)n(CC(=O)N2CCOCC2)c(=O)c2cc(S(=O)(=O)NC3(C)CC3)ccc21 [Example 182] |
| 1430 nM | – | Cc1cc(Cn2c(=O)n(C)c(=O)c3cc(S(=O)(=O)NC4(C)CC4)ccc32)no1 [Example 105] |
| – | 1610 nM | Cn1c(=O)n(Cc2nnc(C(F)(F)F)o2)c(=O)c2cc(S(=O)(=O)NC3(C)CC3)ccc21 [Example 501, 1-Methyl-N-(1-methylcyclopropyl)-2,4-dioxo-3-[[5-(trifluoromethyl)-1,3,4-oxadiazol-2-yl]methyl]quinazoline-6-sulfonamide] |
| 4960 nM | – | Cn1c(=O)c2cc(S(=O)(=O)NC3(C#N)CC3)ccc2n(C)c1=O [Example 3] |
| – | 1610 nM | Cn1c(=O)n(CC(=O)c2ccccc2)c(=O)c2cc(S(=O)(=O)NC3(C)CC3)ccc21 [Example 530, 1-Methyl-N-(1-methylcyclopropyl)-2,4-dioxo-3-phenacyl-quinazoline-6-sulfonamide] |
| 1230 nM | – | Cn1nccc1Cn1c(=O)n(C)c(=O)c2cc(S(=O)(=O)NC3(C)CC3)ccc21 [Example 125] |
| 7350 nM | – | Cn1ccnc1Cn1c(=O)c2cc(S(=O)(=O)NC3(C)CC3)ccc2n(C)c1=O [Example 113] |
| 1480 nM | – | Cn1c(=O)c2cc(S(=O)(=O)NC3(C)CC3)ccc2n(CC2CCOC2)c1=O (stereo not shown) [Example 37] |
| 1510 nM | – | Cn1c(=O)n(CC(=O)c2ccc(N3CCCC3)cc2)c(=O)c2cc(S(=O)(=O)NC3(C)CC3)ccc21 [Example 114] |
| 714 nM | – | Cn1c(=O)c2cc(S(=O)(=O)NC3(C)CC3)ccc2n(Cc2c(F)cccc2F)c1=O [Eample 75] |
| 3790 nM | – | Cc1cc(Cn2c(=O)c3cc(S(=O)(=O)NC4CC4)ccc3n(C)c2=O)on1 [Example 260] |
| 4160 nM | – | Cc1nc2ccc(S(=O)(=O)NC3(C)CC3)cc2c(=O)n1C [Example 51] |
| 4110 nM | – | CCn1c(=O)n(C)c(=O)c2cc(S(=O)(=O)NC3(C)CC3)ccc21 [Example 9] |
| 1050 nM | – | Cn1c(=O)c2cc(S(=O)(=O)NC3(C)CC3)ccc2n(Cc2nc3ccccc3[nH]2)c1=O [Example 116] |
